Results as given in paper PMC5626944 (Frontiers in Pharmacology, 2017).
Like-named read-outs stand apart in the source and are kept apart here.

What was measured:
Sigma 2 = experiment: NovaScreen competition binding; settings: 1 µM
Sigma 1 = experiment: NovaScreen competition binding; settings: 1 µM
Adrenergic, Alpha 2C (h) = tested on: T1, Adrenergic, Alpha 2C (h); experiment: NovaScreen competition binding; design: species or system human; settings: 1 µM
T1 construct: PerkinElmer – Caliper Life Sciences (NovaScreen service)

Adrenergic, Alpha 2B = experiment: NovaScreen competition binding; settings: 1 µM
[1] = In vitro metabolism in microsomes; type: in vitro ADME; settings: human microsomes
[2] = tested on: T2, Thromboxane A2 (h) [SQ 29,548]; experiment: NovaScreen competition binding; design: species or system human; settings: 1 µM
T2 construct: PerkinElmer – Caliper Life Sciences (NovaScreen service)

[3] = tested on: Glutamate, Kainate Site (Ionotropic); experiment: NovaScreen competition binding; settings: 1 µM
Serotonin Transporter = experiment: NovaScreen competition binding; settings: 1 µM
[4] = tested on: WT, α6L9′S, α6KO, α4KO and β2KO mice; experiment: Conditioned place preference; type: in vivo, mouse; settings: for ED50: Mus musculus, read-out: CPP ED50
Text: Male, 3–6-month-old mice were used in our CPP assays. Various genotypes were used: WT, α6L9′S, α4L9′S (hypersensitive […]), α6KO, α4KO, and β2KO. All WT mice were C57BL/6J and all other genotypes have been backcrossed with C57BL/6J mice for ≥10 generations. The CPP apparatus (Med Associates, East Fairfield, VT, United States) was a rectangular cage with interior dimensions of 46.5 × 12.7 × 12.7(H) cm, divided into three sub-compartments: white and black (each 16.8 cm L) with steel mesh and rod floors, respectively, and a central gray compartment (7.2 cm L) with a solid plastic floor. […] Drop-down doors separated the chambers.
Mice were housed singly and habituated to the experimental room for 3–7 days before initial testing and remained in the experimental room for the duration of the experiment. We chose a biased method for CPP. On day 1 (pre-training) mice were placed in the center chamber and allowed to explore the apparatus freely for 20 min. Time spent in each chamber was recorded, and drug pairing was determined by the least preferred chamber. Mice with a severe initial bias for one chamber (defined as ≥65% time spent in one conditioning chamber) were excluded. On days 2, 4, 6, and 8, mice were injected with the drug of interest, and were confined to the drug-paired chamber for 20 min. On days 3, 5, 7, and 9, mice were injected with saline and confined to the opposite chamber. On day 10 (post-training), mice were again given free access to the apparatus for 20 min, and the time spent in each chamber was recorded. CPP was determined by measuring the change in the difference between the time spent in the drug-paired chamber and the saline-paired chamber from pre- to post-training.

Esterase, Acetylcholine = experiment: NovaScreen enzyme assay; type: biochemical; settings: 1 µM
Neuropeptide, NPY2 (h) = tested on: T3, Neuropeptide, NPY2 (h); experiment: NovaScreen competition binding; design: species or system human; settings: 1 µM
T3 construct: PerkinElmer – Caliper Life Sciences (NovaScreen service)

Histamine, H3 = experiment: NovaScreen competition binding; settings: 1 µM
[5] = tested on: Potassium Channel, I[Kr] (hERG) (h); experiment: NovaScreen competition binding; design: species or system human; settings: 1 µM
[6] = tested on: hERG potassium channel (IKr); experiment: NovaScreen competition binding; design: species or system human; settings: human, probe [3H]Astemizole, [3H]Astemizole
WT and α6L9′S mice = experiment: Locomotor assay in a novel environment; type: in vivo, mouse; settings: 0.5 μmol/kg ip (nicotine 0.08 mg/kg, TC299423 0.09 mg/kg)
Description: Mice were habituated to the experimental room for 2 h prior to the experiment. Horizontal locomotor activity was recorded using an infrared photobeam activity cage system (San Diego Instruments; San Diego, CA, United States). After habituating to the experimental room, mice were placed singly in a novel cage. Ambulations were recorded when two contiguous photobeams were broken in succession, preventing activity from being recorded by most sedentary animals. Ambulation events were measured for 45 min with four 15 s intervals per min. Mice were given a total of two intraperitoneal (ip) injections. First, mice were pre-injected with saline or 1 mg/kg mecamylamine before being placed in the activity cages.

[7] = tested on: T4, Phosphodiesterase, PDE4A1A (h); experiment: NovaScreen enzyme assay; type: biochemical, human; settings: 1 µM
T4 construct: PerkinElmer – Caliper Life Sciences (NovaScreen service)

Leukotriene, LTB4 (BLT) = experiment: NovaScreen competition binding; settings: 1 µM
[8] = molecular target: Glutamate,NMDA,Glycine (Stry-insens Site) (Ionot (Rattus norvegicus, UniProt P35439)); experiment: NovaScreen competition binding
[9] = tested on: Glutamate, NMDA, Phencyclidine Site (Ionotropic); experiment: NovaScreen competition binding; settings: 1 µM
Muscarinic, M4 (h) = experiment: NovaScreen competition binding; design: species or system human; settings: 1 µM
[10] = tested on: Potassium Channel, Ca2+ Act., VI; experiment: NovaScreen competition binding; settings: 1 µM
[11] = molecular target: T5, Low-sensitivity α4(3)β2(2) nAChRs (Mus musculus, UniProt O70174+Q9ERK7); experiment: 86Rb+ efflux from thalamic and cortical synaptosomes, DhβE-insensitive component; type: biochemical
T5 construct: from tissue; host or cells: WT mouse thalamic and cortical synaptosomes
Description: (§1) Regions of interest were dissected from fresh mouse brains and homogenized in ice-cold isotonic sucrose (0.32 M), buffered with HEPES (5 mM, pH 7.5). The suspension was centrifuged at 12,000 × g for 20 min.

α4β2 (α5KO) nAChRs = molecular target: T6, α4β2 (α5KO) nAChRs (Mus musculus, UniProt O70174+Q9ERK7); experiment: 86Rb+ efflux from α5KO thalamic and cortical synaptosomes; type: biochemical
T6 construct: from tissue; host or cells: thalamic and cortical synaptosomes of α5KO mice
Description: as §1

T6 sequence (O70174 31-629): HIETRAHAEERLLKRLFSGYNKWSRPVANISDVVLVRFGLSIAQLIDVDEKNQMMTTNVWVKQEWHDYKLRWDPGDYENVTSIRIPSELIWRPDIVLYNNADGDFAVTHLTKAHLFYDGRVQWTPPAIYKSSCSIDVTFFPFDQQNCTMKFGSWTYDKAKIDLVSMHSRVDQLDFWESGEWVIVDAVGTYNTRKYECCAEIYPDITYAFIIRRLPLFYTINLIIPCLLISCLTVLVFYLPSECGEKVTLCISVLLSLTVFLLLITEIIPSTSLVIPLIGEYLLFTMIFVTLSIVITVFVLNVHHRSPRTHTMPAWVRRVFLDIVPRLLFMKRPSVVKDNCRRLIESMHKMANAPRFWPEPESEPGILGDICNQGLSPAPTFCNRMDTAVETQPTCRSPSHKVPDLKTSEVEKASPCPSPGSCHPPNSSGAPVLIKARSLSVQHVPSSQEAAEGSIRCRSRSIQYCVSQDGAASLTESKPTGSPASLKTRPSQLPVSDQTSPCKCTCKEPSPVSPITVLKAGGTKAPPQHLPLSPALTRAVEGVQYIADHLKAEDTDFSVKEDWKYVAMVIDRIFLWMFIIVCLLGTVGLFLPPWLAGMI
T6 sequence (Q9ERK7 26-501): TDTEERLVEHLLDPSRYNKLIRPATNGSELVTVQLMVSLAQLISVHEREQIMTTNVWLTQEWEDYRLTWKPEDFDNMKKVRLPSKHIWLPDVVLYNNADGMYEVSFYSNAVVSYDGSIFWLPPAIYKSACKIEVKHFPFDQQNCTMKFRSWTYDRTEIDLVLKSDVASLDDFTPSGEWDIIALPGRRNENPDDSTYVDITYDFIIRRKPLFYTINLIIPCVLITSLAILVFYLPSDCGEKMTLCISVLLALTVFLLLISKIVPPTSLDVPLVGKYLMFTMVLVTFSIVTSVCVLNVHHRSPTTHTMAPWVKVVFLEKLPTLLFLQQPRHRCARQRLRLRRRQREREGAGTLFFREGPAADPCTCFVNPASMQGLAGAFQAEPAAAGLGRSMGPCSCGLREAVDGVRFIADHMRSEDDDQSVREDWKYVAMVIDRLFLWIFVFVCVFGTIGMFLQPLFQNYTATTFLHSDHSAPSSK
T5 sequence (O70174 31-629): as the sequence (O70174 31-629) above
T5 sequence (Q9ERK7 26-501): as the sequence (Q9ERK7 26-501) above
Chain of Glutamate,NMDA,Glycine (Stry-insens Site) (Ionot (P35439 394-863 limits assumed): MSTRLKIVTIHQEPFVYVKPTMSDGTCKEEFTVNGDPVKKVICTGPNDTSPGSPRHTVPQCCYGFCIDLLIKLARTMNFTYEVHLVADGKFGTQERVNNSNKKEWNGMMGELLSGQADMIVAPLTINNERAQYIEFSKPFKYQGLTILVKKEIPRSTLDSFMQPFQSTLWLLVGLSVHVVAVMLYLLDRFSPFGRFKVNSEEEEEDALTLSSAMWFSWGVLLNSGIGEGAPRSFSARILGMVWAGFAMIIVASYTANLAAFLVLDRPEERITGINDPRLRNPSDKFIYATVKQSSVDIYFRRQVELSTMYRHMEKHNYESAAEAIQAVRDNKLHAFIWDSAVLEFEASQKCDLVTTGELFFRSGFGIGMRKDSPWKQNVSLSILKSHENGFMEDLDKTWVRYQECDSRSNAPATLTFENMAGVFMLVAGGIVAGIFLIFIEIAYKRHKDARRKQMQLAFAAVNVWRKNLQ

C1=C(/c2cncnc2)CCCNCC/1 [TC299423, (E)-5-(pyrimidin-5-yl)-1,2,3,4,7,8-hexahydroazocine]
Hit (Sigma 2): FALSE
Inhibition (Sigma 2; [3H]-DTG): -0.65%
Hit (Sigma 1): FALSE
Inhibition (Sigma 1; [3H]-(+)-Pentazocine): -0.52%
Hit (Adrenergic, Alpha 2C (h)): FALSE
Inhibition (Adrenergic, Alpha 2C (h); [3H]MK-912): 6.28%
Hit (Adrenergic, Alpha 2B): FALSE
Inhibition (Adrenergic, Alpha 2B; [3H]MK-912): -14.09%
Half-life compared to varenicline [1]: ~7 fold
half-life [1]: 285 min
microsomal CLint ([1]; read-out: Clearance): 5 µL/min/mg
Hit [2]: FALSE
Inhibition ([2]; 3H SQ 29,548): 3.14%
Hit [3]: FALSE
Inhibition ([3]; [3H]Kainic acid): -6.93%
Hit (Serotonin Transporter): FALSE
Inhibition (Serotonin Transporter; [3H]Citalopram, N-Methyl): 7.03%
CPP difference scores in α4KO mice vs WT ([4]; 0.012 mg/kg): no effect
CPP difference scores in α6KO and β2KO mice vs WT ([4]; 0.012 mg/kg): dramatically reduced
ED50 ([4]; WT mice, Michaelis–Menten fit): 4 ± 3 µg/kg
ED50 ([4]; α6L9′S mice): < 1 µg/kg
CPP difference score vs saline-injected control ([4]; WT mice, 0.012 mg/kg, t-test p = 0.047): marginally significant increase
Overall effect on CPP ([4]; WT mice, 1, 4, 12, 25 μg/kg, one-way ANOVA): no significant overall effect
Overall effect on the CPP difference score ([4]; α6L9′S mice, 1, 4, 12, 25 μg/kg, one-way ANOVA): highly significant overall effect
CPP difference score vs saline-injected controls ([4]; α6L9′S mice, 1 and 25 μg/kg, Tukey HSD p < 0.05): significantly greater than the saline-injected controls
Hit (Esterase, Acetylcholine): FALSE
Inhibition (Esterase, Acetylcholine; substrate Acetylthiocholine): 21.55%
Hit (Neuropeptide, NPY2 (h)): FALSE
Inhibition (Neuropeptide, NPY2 (h); [125I]-PYY): 2.16%
Hit (Histamine, H3): FALSE
Inhibition (Histamine, H3; [3H]N-a-MeHistamine): 5.85%
Hit [5]: FALSE
inhibition at 1 µM [6]: 14.5%
Ambulatory activity in a novel environment (WT and α6L9′S mice; WT mice): Neither TC299423 nor nicotine affected WT ambulation
Ambulatory activity in a novel environment (WT and α6L9′S mice; α6L9′S mice): dramatically increased the ambulatory activity
Hit [7]: FALSE
Hit (Leukotriene, LTB4 (BLT)): FALSE
Inhibition (Leukotriene, LTB4 (BLT); [3H]LTB4): 29.86%
Hit ([8]; 1 µM): FALSE
inhibition at 1 µM ([8]; [3H]-MDL-105,519): 4.34%
Hit [9]: FALSE
Inhibition ([9]; [3H]TCP): 7.71%
Hit (Muscarinic, M4 (h)): FALSE
Inhibition (Muscarinic, M4 (h); [3H]Scopolamine, N-Methyl): -6.69%
Hit [10]: FALSE
Inhibition ([10]; [125I]Apamin): -2.57%
86Rb+ efflux Efficacy ([11]; Cortex): 39 ± 4%
EC50 ([11]; Cortex): 26 ± 21 µM
86Rb+ efflux Efficacy ([11]; Thalamus): 32 ± 10%
EC50 ([11]; Thalamus): 10 ± 10 µM
86Rb+ efflux Efficacy (α4β2 (α5KO) nAChRs; Cortex): 169 ± 20%
EC50 (α4β2 (α5KO) nAChRs; Cortex): 2400 ± 700 nM
86Rb+ efflux Efficacy (α4β2 (α5KO) nAChRs; Thalamus): 166 ± 32%
EC50 (α4β2 (α5KO) nAChRs; Thalamus): 1600 ± 500 nM
